{
  "source": "paper PMC4772870",
  "about": "(2015)",
  "tested_on": "d(ATGCAT)2 (DNA, duplex) ATGCAT",
  "assay": "melting temperature",
  "details": "derived from two Tm (~30 free, ~45 complex); reviewed from authors' ref 23",
  "data": [
    {"smiles": "Cc1cccc2nc3cccc(C(=O)NCCNCCNCCNC(=O)c4cccc5nc6cccc(C)c6nc45)c3nc12", "values": [
      {"measurement": "dTm", "value": "~ 15 °C"}
    ]}
  ]
}
